{"source": "patent US20080033274A1", "about": "“Device and Method for Monitoring the Functioning of the Lower Esophageal Sphincter” (Altana Pharma AG, priority 2004, published 2008)", "system": "transient lower esophageal sphincter relaxations (TLESRs) in the conscious dog", "test": "Number of TLESRs (hydrogen marker gas eructations) in gastric fistula dog under barostat gastric pressure", "assay_type": "in vivo", "conditions": "7 μmol/kg i.v., 12 mm Hg to the stomach", "text": "The various aspects of the invention were studied with fistula dogs. The fistula is inserted into the stomach of the dog by methods known to the expert, for example as described in Postius S, Braeuer U. Loss of circadian rhythm in luminal acidity of canine stomach by implantation of a gastric fistula. Digestion. 1995; 56(1):3540.\nThe method according to the invention was used to quantify the number of transient lower esophageal sphincter relaxations (TLESRs, leading to gas refluxes) in the conscious dog, which are provoked by the introduction of hydrogen gas in the stomach. The method can be used with fasted or fed animals and it is not depending on the status of gastric acid secretion.\nFor the assessment of TLESRs, the gastric fistula dogs were temporarily connected via the gastric fistula to a barostat which continuously measures the gastric pressure and continuously approximates during the monitoring of the marker gas a target pressure by sucking or pumping a gas mixture of air and hydrogen, comprising 0.2-3% hydrogen, whereby 3% of hydrogen was yielding the highest sensitivity.\nA target pressure was selected that causes an appropriate number of TLESRs, usually for a period of 30 min. […] The quantification of TLESRs resulting in eructations was performed by continuous collection of the gas in front of and in the middle of nose and mouth of the dog with an open measuring probe head. This gas, comprising hydrogen from the gastric gas mixture, which eructed if the dog is belching, was sucked to a hydrogen sensor (Model used: UST 2330, UST—Umweltsensortechnik GmbH, 98716 Geschwenda, Germany) registering the hydrogen concentration. Significant enhancement in hydrogen concentration in the collected gas was defined to represent a TLESR caused by an eruction. […] Some eructions occurred at 6 mm Hg and lots were measured above 12 mm Hg. However, above 12-14 mm Hg vomiting might be induced as well.\nThe study design was as follows: […]\n0-30 minutes: detection of the number of TLESR by monitoring the concentration of hydrogen detected in the sensor […]"}
{"smiles": "NCC(CC(=O)O)c1ccc(Cl)cc1", "note": "(stereo not drawn) [Baclofen]", "values": [{"measurement": "Number of TLESR detected in the time period indicated", "setting": "time period 0-10 minutes", "value": 0.75}, {"measurement": "Number of TLESR detected in the time period indicated", "setting": "time period 10-20 minutes", "value": 0.25}, {"measurement": "Number of TLESR detected in the time period indicated", "setting": "time period 20-30 minutes", "value": 1.75}]}
